Reference: the CheMixHub viscosity set

Experiment: xn = mol fraction of the nth substance listed

Clc1ccccc1 + CCCCOC(C)=O
viscosity [mPa·s], 101 kPa
Conditions	298.15 K	308.15 K
x2 = 0.0484	0.744	0.669
x2 = 0.1504	0.723	0.651
x2 = 0.2515	0.706	0.636
x2 = 0.349	0.692	0.624
x2 = 0.4447	0.682	0.614
x2 = 0.4933	0.678	0.61
x2 = 0.5503	0.674	0.605
x2 = 0.6502	0.669	0.599
x2 = 0.7514	0.667	0.595
x2 = 0.8498	0.668	0.593
x2 = 0.9417	0.671	0.593

N#CCCCCC#N + CCCCOC(C)=O
303.15 K, 101.33 kPa
Conditions	viscosity [mPa·s]
x1 = 0.0984	0.7145
x1 = 0.3003	1.052
x1 = 0.3857	1.281
x1 = 0.4963	1.663
x1 = 0.5929	2.082
x1 = 0.6974	2.631
x1 = 0.8455	3.61

CCc1ccccc1 + CCCO
viscosity [mPa·s], 101.33 kPa
Conditions	x2 = 0.3	x2 = 0.5	x2 = 0.7	x2 = 0.9
303 K	0.646	0.826	1.01	1.335
313 K	0.561	0.697	0.839	1.084
323 K	0.494	0.598	0.7	0.886

COC(C)(C)C + CCCO
Conditions	viscosity [mPa·s]
293.15 K, 101 kPa, x1 = 0.0599	1.835
298.15 K, 101 kPa, x1 = 0.0403	1.735
298.15 K, 101 kPa, x1 = 0.1495	1.275
298.15 K, 101.33 kPa, x1 = 0.0111	1.902
298.15 K, 101.33 kPa, x1 = 0.0293	1.804
298.15 K, 101.33 kPa, x1 = 0.0591	1.651
298.15 K, 101.33 kPa, x1 = 0.1133	1.416
298.15 K, 101.33 kPa, x1 = 0.1374	1.327
298.15 K, 101.33 kPa, x1 = 0.2501	0.998
298.15 K, 101.33 kPa, x1 = 0.3008	0.889
298.15 K, 101.33 kPa, x1 = 0.324	0.85
298.15 K, 101.33 kPa, x1 = 0.3581	0.792
298.15 K, 101.33 kPa, x1 = 0.3641	0.779
298.15 K, 101.33 kPa, x1 = 0.4004	0.729
298.15 K, 101.33 kPa, x1 = 0.4451	0.671
298.15 K, 101.33 kPa, x1 = 0.488	0.624
298.15 K, 101.33 kPa, x1 = 0.5535	0.562
298.15 K, 101.33 kPa, x1 = 0.6157	0.512
298.15 K, 101.33 kPa, x1 = 0.677	0.471
298.15 K, 101.33 kPa, x1 = 0.7585	0.427
298.15 K, 101.33 kPa, x1 = 0.8246	0.397
298.15 K, 101.33 kPa, x1 = 0.8813	0.378
298.15 K, 101.33 kPa, x1 = 0.9491	0.356
298.15 K, 101.33 kPa, x2 = 0.014	0.344

COCCOCCOCCOCCOC + CCCO
viscosity [mPa·s], 101 kPa
Conditions	298.15 K	308.15 K
x1 = 0.0071	1.913	1.492
x1 = 0.0125	1.9	1.485
x1 = 0.0309	1.872	1.475
x1 = 0.0504	1.852	1.463
x1 = 0.1024	1.841	1.467
x1 = 0.1342	1.861	1.488
x1 = 0.1847	1.908	1.528
x1 = 0.2444	1.989	1.593
x1 = 0.2916	2.062	1.645
x1 = 0.3271	2.126	1.697
x1 = 0.369	2.192	1.754
x1 = 0.4386	2.31	1.84
x1 = 0.4814	2.384	1.896
x1 = 0.5238	2.466	1.953
x1 = 0.5941	2.577	2.041
x1 = 0.6423	2.665	2.104
x1 = 0.7174	2.797	2.205
x1 = 0.7487	2.855	2.247
x1 = 0.7864	2.91	2.291
x1 = 0.8401	3.007	2.36

Clc1cccc2ccccc12 + CCCO
viscosity [mPa·s], 101.33 kPa
Conditions	x1 = 0.1004	x1 = 0.2017	x1 = 0.2983	x1 = 0.395	x1 = 0.5003	x1 = 0.6002	x1 = 0.6993	x1 = 0.7991	x1 = 0.9003
298.15 K	1.968	2.039	2.091	2.172	2.255	2.349	2.448	2.567	2.716
303.15 K	1.745	1.805	1.854	1.918	1.999	2.077	2.166	2.275	2.417
308.15 K	1.57	1.62	1.672	1.714	1.789	1.86	1.943	2.043	2.178
